What all share (type): cell-based
Test [1] relates to Trypanosoma cruzi amastigotes cultured in 3T3 fibroblast cells. Description: Assay for growth inhibition of kinetoplastid parasite Trypanosoma cruzi (beta-galactosidase Tulahuen strain, CPRG readout). The note with it: Trypanosoma cruzi, Fibroblast, T. cruzi amastigotes in 3T3 fibroblast cells; read-out: Buckner infectious T. cruzi EC50. The gist of the method: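 3T3 fibroblasts (1,000 cells/well) plated overnight, treated with compound in DMSO, then infected with 10,000 Lac-Z-expressing Tulahuen trypomastigotes. After 6 days, 0.6 mM CPRG with 0.6% NP-40 added for 2 h at room temperature; absorbance gives relative intracellular amastigote numbers. Benznidazole and nifurtimox serve as positive controls.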

The subject of test [2] is Leishmania donovani axenic amastigote. Description: In vitro assay for growth inhibition of Leishmania donovani axenic amastigote (Cell TiterGlo luminescence). Particulars: Leishmania donovani, L. donovani axenic amastigotes in vitro; read-out: L. donovani amastigotes EC50. An outline of the steps: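 Compound-treated wells received 9600 axenic amastigotes in RPMI 1640-based medium at pH 5.5 (37 °C, 5% CO2). Growth measured as ATP luminescence (CellTiter-Glo) after 2-day incubation; DMSO and reference compounds served as controls.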

In test [3] the test system is L. donovani HU3 strain in mouse peritoneal macrophages. Nature of the test: Assay for inhibition of parasitemia of Leishmania donovani in mouse macrophages (SYBR Green nuclei count, high-content imaging). Particulars: Leishmania donovani, Peritoneal macrophage, L. donovani in mouse peritoneal macrophages; read-out: L. donovani in Mouse Macrophages EC50. The gist of the method: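 Parasite numbers were counted from SYBR Green-stained nuclei imaged by high-content microscopy after paraformaldehyde fixation and Triton permeabilization. Before this, compound was applied for 5 days at 37° C to BALB/c peritoneal macrophages (2×10^4/well) that had been exposed 24 h to 4×10^5 L. donovani HU3 amastigotes harvested from infected mouse spleens.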

Test [4] relates to Trypanosoma brucei brucei (Lister 427) strain. Nature of the test: Assay for growth inhibition against Trypanosoma brucei brucei (Cell TiterGlo ATP luminescence). The note with it: T. brucei brucei (Lister 427), read-out: T. Brucei (HAT) EC50. An outline of the steps: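 Growth read-out is cellular ATP by CellTiter-Glo luminescence, measured 30 min after reagent addition, following 2-day incubation at 37 °C in CO2. Parasites (10,000/mL, HMI-9 plus 10% FBS and 10% serum plus) faced 10 threefold dilutions in duplicate; IC50 taken as 50% growth inhibition versus untreated.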
(Cellular ATP, detected with luciferase, serves as a proxy for viable cell number.)

Read-outs that look alike come from different tables or passages of the source.

In general, EC50 refers to the concentration that produces a half-maximal response. For the compound `O=C(Nc1ccc(F)c(-n2cc3cc(N4CC5(CC5)C4)cnc3n2)c1)N1CC(F)C1` [Compound 233, N-[3-(5-{5-azaspiro[2.3]hexan-5-yl}-2H-pyrazolo[3,4-b]pyridin-2-yl)-4-fluorophenyl]-3-fluoroazetidine-1-carboxamide], the 50% effective concentration (EC50) in test [1] is 5 nM; in test [2], 13 nM; in test [3] it was 10 nM; in test [4], 4 nM.
In the same order, the values of `O=C(Nc1ccc(F)c(-n2cc3cc(N4C[C@@H](F)[C@H](F)C4)cnc3n2)c1)N1CC(F)C1` [Compound 234, N-(3-{5-[(3R,4R)-3,4-difluoropyrrolidin-1-yl]-2H-pyrazolo[3,4-b]pyridin-2-yl]-4-fluorophenyl)-3-fluoroazetidine-1-carboxamide] are 9 nM, 27 nM, 3 nM and 5 nM.
On to `O=C(Nc1ccc(F)c(-n2cc3cc(N4C5CCC4COC5)cnc3n2)c1)N1CC(F)C1` [Compound 235, 3-fluoro-N-[4-fluoro-3-(5-{3-oxa-8-azabicyclo[3.2.1]octan-8-yl}-2H-pyrazolo[3,4-b]pyridin-2-yl)phenyl}azetidine-1-carboxamide], for which the 50% effective concentration (EC50) in test [1] stood at 11 nM; in test [2] it was 11 nM; in test [3], 10 nM; in test [4] (Trypanosoma brucei) it was 5 nM.
`O=C(O)C1CCN(c2cnc3nn(-c4cc(NC(=O)N5CC(F)C5)ccc4F)cc3c2)CC1` [Compound 236, 1-(2-{2-fluoro-5-[(3-fluoroazetidine-1-carbonyl)amino]phenyl}-2H-pyrazolo[3,4-b]pyridin-5-yl)piperidine-4-carboxylic acid]: the EC50 is 20000 nM in test [1], 264 nM in test [2], 29700 nM in test [3] and 1460 nM in test [4] (Trypanosoma brucei).
On to `O=C(Nc1ccc(F)c(-n2cc3cc(N4CCN(CC(F)(F)F)CC4)cnc3n2)c1)N1CC(F)C1` [Compound 237, 3-fluoro-N-(4-fluoro-3-{5-[4-(2,2,2-trifluoroethyl)piperazin-1-yl]-2H-pyrazolo[3,4-b]pyridin-2-yl}phenyl)azetidine-1-carboxamide], for which the EC50 is 21 nM in test [1], 16 nM in test [2], 9 nM in test [3] and 5 nM in test [4] (Trypanosoma brucei).
As to `O=C(Nc1ccc(F)c(-n2cc3cc(N4CCC(C5COC5)CC4)cnc3n2)c1)N1CC(F)C1` [Compound 238, 3-fluoro-N-(4-fluoro-3-{5-[4-(oxetan-3-yl)piperidin-1-yl]-2H-pyrazolo[3,4-b]pyridin-2-yl}phenyl)azetidine-1-carboxamide], the EC50 in test [1] came out at 33 nM; in test [2] it was 25 nM; in test [3], 32 nM; in test [4] (Trypanosoma brucei), 5 nM.
In the same order, the values of `O=C(Nc1ccc(F)c(-n2cc3cc(N4CC5(CSC5)C4)cnc3n2)c1)N1CC(F)C1` [Compound 239, 3-fluoro-N-[4-fluoro-3-(5-{2-thia-6-azaspiro[3.3]heptan-6-yl}-2H-pyrazolo[3,4-b]pyridin-2-yl)phenyl}azetidine-1-carboxamide] are 10 nM, 1760 nM, 9 nM and 5 nM.
In the same order, the values of `O=C(Nc1ccc(F)c(-n2cc3cc(N4CC5CC(C4)O5)cnc3n2)c1)N1CC(F)C1` [Compound 240, 3-fluoro-N-[4-fluoro-3-(5-{6-oxa-3-azabicyclo[3.1.1]heptan-3-yl}-2H-pyrazolo[3,4-b]pyridin-2-yl)phenyl}azetidine-1-carboxamide] are 21 nM, 579 nM, 27 nM and 5 nM.
Consider `O=C(Nc1ccc(F)c(-n2cc3cc(N4CCC5(CC5)C4)cnc3n2)c1)N1CC(F)C1` [Compound 241, N-[3-(5-{5-azaspiro[2.4]heptan-5-yl}-2H-pyrazolo[3,4-b]pyridin-2-yl)-4-fluorophenyl}-3-fluoroazetidine-1-carboxamide], for which the EC50 worked out at 3 nM in test [1], 1190 nM in test [2], 6 nM in test [3] and 5 nM in test [4] (Trypanosoma brucei).
In the same order, the values of `O=C(Nc1ccc(F)c(-n2cc3cc(N4CCC5(CC5)C4)cnc3n2)c1)N1CCC2(CC2)C1` [Compound 242, N-[3-(5-{5-azaspiro[2.4]heptan-5-yl}-2H-pyrazolo[3,4-b]pyridin-2-yl)-4-fluorophenyl}-5-azaspiro[2.4]heptane-5-carboxamide] are 7 nM, 1970 nM, 106 nM and 13 nM.
In the same order, the values of `O=C(Nc1ccc(F)c(-n2cc3cc(N4CC5(CCC5)C4)cnc3n2)c1)N1CC(F)C1` [Compound 243, N-[3-(5-{2-azaspiro[3.3]heptan-2-yl}-2H-pyrazolo[3,4-b]pyridin-2-yl)-4-fluorophenyl}-3-fluoroazetidine-1-carboxamide] are 82 nM, 2100 nM, 65 nM and 5 nM.
In the same order, the values of `O=C(Nc1ccc(F)c(-n2cc3cc(N4CCC5(CCOCC5)C4)cnc3n2)c1)N1CC(F)C1` [Compound 244, 3-fluoro-N-[4-fluoro-3-(5-{8-oxa-2-azaspiro[4.5]decan-2-yl}-2H-pyrazolo[3,4-b]pyridin-2-yl)phenyl}azetidine-1-carboxamide] are 14 nM, 550 nM, 21 nM and 5 nM.
Consider `O=C1CCC2(CN(c3cnc4nn(-c5cc(NC(=O)N6CC(F)C6)ccc5F)cc4c3)C2)N1` [Compound 245, 3-fluoro-N-[4-fluoro-3-(5-{6-oxo-2,5-diazaspiro[3.4]octan-2-yl}-2H-pyrazolo[3,4-b]pyridin-2-yl)phenyl}azetidine-1-carboxamide], for which the EC50 came to 951 nM in test [1], 311 nM in test [2], 1490 nM in test [3] and 62 nM in test [4] (Trypanosoma brucei).
In the same order, the values of `O=C(Nc1ccc(F)c(-n2cc3cc(N4CC5(CCOC5)C4)cnc3n2)c1)N1CC2(CCOC2)C1` [Compound 246, N-[4-fluoro-3-(5-{6-oxa-2-azaspiro[3.4]octan-2-yl}-2H-pyrazolo[3,4-b]pyridin-2-yl)phenyl}-6-oxa-2-azaspiro[3.4]octane-2-carboxamide] are 2840 nM, 535 nM, 379 nM and 396 nM.
The corresponding values for `CC(C)(C)OC(=O)N1CCCC1c1cnc2nn(-c3cc(NC(=O)N4CCC4)ccc3F)cc2c1` (centres unmarked) [Compound 247, tert-butyl 2-(2-{5-[(azetidine-1-carbonyl)amino]-2-fluorophenyl}-2H-pyrazolo[3,4-b]pyridin-5-yl)pyrrolidine-1-carboxylate] are 14 nM, 40 nM, 23 nM and 5 nM.
In the same order, the values of `O=C(Nc1ccc(F)c(-n2cc3cc(N4CCC5(CC4)COC5)cnc3n2)c1)N1CC(F)C1` [Compound 248, 3-fluoro-N-[4-fluoro-3-(5-{2-oxa-7-azaspiro[3.5]nonan-7-yl}-2H-pyrazolo[3,4-b]pyridin-2-yl)phenyl]azetidine-1-carboxamide] are 11 nM, 117 nM, 8 nM and 5 nM.
Take `O=C(Nc1ccc(F)c(-n2cc3cc(NC4CC4)cnc3n2)c1)N1CC(F)C1` [Compound 249, N-{3-[5-(cyclopropylamino)-2H-pyrazolo[3,4-b]pyridin-2-yl]-4-fluorophenyl}-3-fluoroazetidine-1-carboxamide]: the half-maximal effective concentration (EC50) is 110 nM in test [1], 864 nM in test [2], 125 nM in test [3] and 5 nM in test [4] (Trypanosoma brucei).
The corresponding values for `O=C(Nc1ccc(F)c(-n2cc3cc(N4CCN(CC(F)(F)F)CC4)cnc3n2)c1)N1CCC1` [Compound 250, N-(4-fluoro-3-{5-[4-(2,2,2-trifluoroethyl)piperazin-1-yl]-2H-pyrazolo[3,4-b]pyridin-2-yl}phenyl)azetidine-1-carboxamide] are 1 nM, 43 nM, 10 nM and 5 nM.
With `O=C(Nc1ccc(F)c(-n2cc3cc(Br)cnc3n2)c1)N1CC2(CC2)C1` [Compound 254, N-(3-(5-bromo-2H-pyrazolo[3,4-b]pyridin-2-yl)-4-fluorophenyl)-5-azaspiro[2.3]hexane-5-carboxamide], the EC50 worked out at 50 nM in test [1], 91 nM in test [2], 673 nM in test [3] and 259 nM in test [4] (Trypanosoma brucei).
In the same order, the values of `CC1(C)CN(c2cnc3nn(-c4cc(NC(=O)N5CC(F)C5)ccc4F)cc3c2)C1` [Compound 255, N-{3-[5-(3,3-dimethylazetidin-1-yl)-2H-pyrazolo[3,4-b]pyridin-2-yl]-4-fluorophenyl}-3-fluoroazetidine-1-carboxamide] are 15 nM, 42 nM, 28 nM and 5 nM.

The record behind these values is patent US11384078B2, “5,6-fused-bicyclic compounds and compositions for the treatment of parasitic diseases” (NOVARTIS AG, priority 2017, dated 2022).
